Key:
[1] = tested on: L1210 mouse leucemia; test: inhibition of colony formation in soft agar (colony assay), L1210; type: cell-based; conditions: for Cytotoxicity in vitro EC90 L 1210: concentration giving 90% inhibition of colony formation, determined by graph, 6 days incubation; for activity against L 1210 cells (ranking in words): among the compounds of the table
Description: (§1) The effectiveness of the compounds defined in accordance with the invention was tested as to their in vitro cytotoxicity. The investigations about inhibition of colony formation in soft agar (colony assay) were carried out in conformity with the method of Hamburger and Salmon (A. W. Hamburger, S. E. Salmon, "Primary Bioassay of Human Myeloma Stem Cells", J. Clin. Invest. 60: 846-854 (1977); A. W. Hamburger and S. E. Salmon, "Primary Bioassay of Human Tumor Stem Cells", Science 197: 461-463 (1977)). The tumor cells were incubated in RPMI-1640 medium with 20% fetal calf serum and 0.3% agar in the presence of different concentrations of the test substance at 37° C., 95% relative air humidity and 5% CO2. Triple values were taken in each instance. The incubation time was 6 days for L1210 mouse leucemia and 8 days for KB human mucous-membrane carcinoma. The colonies formed (>50 cells) were subsequently counted.

[2] = tested on: KB human mucous-membrane carcinoma; test: inhibition of colony formation in soft agar (colony assay), KB; type: cell-based; conditions: for Cytotoxicity in vitro EC90 KB: concentration giving 90% inhibition of colony formation, determined by graph, 8 days incubation; for activity against KB cells (ranking in words): among the compounds of the table
Description: as §1

[3] = tested on: ovarian carcinoma OVXF 899; test: human tumors transplanted into the naked mouse, OVXF 899; type: in vivo; conditions: OVXF 899 xenograft, same conditions (45 mg/kg i.p. per day 1.5 and 9)
Description: (§2) The compound H-LYS(LYS)-NHC18 H37.3HCL (D-21621) was tested separately on human tumors transplanted into the naked mouse. […] This tumor is resistant to all standard cytostatic agents.

[4] = tested on: small-cell bronchial carcinoma LXFS 538; test: human tumors transplanted into the naked mouse, LXFS 538; type: in vivo; conditions: LXFS 538 xenograft, 45 mg/kg i.p. per day 1.5 and 9
Description: as §2

| Compound | Cytotoxicity in vitro EC90 L 1210 [1] | Cytotoxicity in vitro EC90 KB [2] | activity against L 1210 cells (ranking in words) [1] | tumor inhibition [3] | tumor inhibition [4] | activity against KB cells (ranking in words) [2] |
| --- | --- | --- | --- | --- | --- | --- |
| CCCCCCCCCCCCCCCCNC(=O)C1CSCN1 [D-21 980, H--THZ--NHC16 H33] | 3.4 µg/mL | 3.1 µg/mL | – | – | – | – |
| CCCCCCCCCCCCCCCCCCNC(=O)[C@H](N)CCCCNC(=O)[C@H](N)CCCCN.Cl.Cl.Cl [D-22 628, H--D--LYS(D--LYS)--NHC18 H37.3HCL] | 0.8 µg/mL | 1.1 µg/mL | highest activity | – | – | – |
| CCCCCCCCCCCCCCCCCCNC(=O)C(N)CCCCNC(=O)C(N)CCCCN.Cl.Cl.Cl [D-21 621, H--LYS(LYS)--NHC18 H37.3HCl] | 2.2 µg/mL | 1.4 µg/mL | – | 46 % of the control | 37 % of the control | – |
| Br.Br.Br.CCCCCCCCCCCCCCCCCCNC(=O)C(N)CCCCNC(=O)C(N)CCCCN [D-20 994, H--LYS(LYS)--NHC18 H37.3HBr] | 3.2 µg/mL | 0.8 µg/mL | – | – | – | highest activity |
| CCCCCCCCCCCCCCCCCCNC(=O)C(N)CCCNC(=O)C(N)CCCN.Cl.Cl.Cl [D-20 989, H--ORN(ORN)--NHC18 H37.3HCL] | 3.1 µg/mL | 1.3 µg/mL | – | – | – | – |
| CCCCCCCCCCCCCCNC(=O)C1CSCN1 [D-21 979, H--THZ--NHC14 H29] | 0.3 µg/mL | 3.1 µg/mL | highest activity | – | – | – |
| CCCCCCCCCCCCCCCCCCNC(=O)C(CCCCN)NC(=O)C(N)CCCCN [D-22 267, H--LYS--LYS--NHC18 H37] | 3.1 µg/mL | 0.3 µg/mL | – | – | – | highest activity |
| H--LYS[(LYS)LYS]--NHC18 h37.4HBr [D-20 995] | > 3 µg/mL | 0.9 µg/mL | – | – | – | highest activity |
| H--ORN[(ORN)ORN]--NHC18 H37 4HCl [D-20 990] | > 10 µg/mL | 1.7 µg/mL | – | – | – | – |
